Experimental data from patent publication US20100137346A1, “DESFE[…] ACTINIDE DEC[…]” (priority 2006, published 2010).
Where two headings read alike, the source gives them in different places.

Legend:
[1] = orally to C. apella primates, 150 μmol/kg, data from ref 19 / ref 17, cited from earlier work
[2] = Chelator-induced uranium excretion (urine + bile, 24 h) in bile duct-cannulated rat model; type: in vivo; settings: for response vs control in vivo at 300 µmol/kg / response vs control in vivo at 600 µmol/kg: Rattus norvegicus, 24 h, read-out: Chelator-Induced U Excretion/Control
Description: Desferrithiocin Analogue Induced Excretion of Uranium. In order to compare results with previous chelator-induced iron excretion data, the uranium clearance studies were carried out in a bile duct-cannulated rat model. The animals were given uranyl acetate dihydrate SC at a dose of 5 mg/kg (the actual dose of uranium is 2.8 mg/kg). Bile and urine samples were collected for 24 hours after dosing. Kidneys were removed from selected animals and tissue uranium concentration measured. At least three animals were utilized in each experimental group. Data from two separate control studies (uranyl acetate/ no chelator) have now been combined for a total of 14 control animals. All uranium concentrations were measured using ICPMS. The data are reported as the total quantity of uranium excreted [urine +bile]; the mode of excretion [urine/bile] is also given. In addition the percentage of the administered dose of uranium cleared and chelator-induced uranium excretion vs the controls is also given. Four positive controls were evaluated: DTPA (13, Table 1) given as its trisodium calcium salt, DFO (14), N,N′-bis(2hydroxybenzyl)ethylenediamine-N,N′-diacetic acid, monosodium salt (NaHBED, 15) and the hydroxypyridone CP94 (16) shown to bind uranium [Pashalidis, et al., Effective complex formation in the interaction of 1,2-dimethyl-3-hydroxypyrid-4-one (Deferiprone or L1) with uranium(VI), Journal of Radioanalytical and Nuclear Chemistry 1999; 242:181-184.] The total metal cleared after 24 h in control rats was 10% of the administered dose. When DTPA, 13, was given IP or PO at 300 μmol/kg immediately after uranium, the excretion was 17% and 8% of the administered dose respectively (p>0.05). However, when the drug was given IP at a dose of 600 μmol/kg immediately post-metal, the uranium excretion was significant, 20% (p<0.005). This is consistent with previously published data using a similar animal model.[Domingo, et al., Comparative effects of the chelators sodium 4,5-dihydroxybenzene-1,3-disulfonate (Tiron) and diethylenetriaminepentaacetic acid (DTPA) on acute uranium nephrotoxicity in rats, Toxicology 1997; 118:49-59] DFO (14) and CP94 (16) given IP immediately post uranyl acetate were ineffective.
Desferrithiocin Analogue-Induced Excretion of Uranium. In order to compare results with previous chelator-induced iron excretion data, the uranium clearance studies were carried out in a bile duct-cannulated rat model. The animals were given uranyl acetate dihydrate SC at a dose of 5 mg/kg (the actual dose of uranium is 2.8 mg/kg). Bile and urine samples were collected for 24 hours after dosing. Kidneys were removed from selected animals and tissue uranium concentration measured. At least three animals were utilized in each experimental group. Data from two separate control studies (uranyl acetate/ no chelator) are combined for a total of 14 control animals. All uranium concentrations were measured using ICPMS. The data are reported as the total quantity of uranium excreted [urine +bile]; the mode of excretion [urine/bile] is also given. In addition the percentage of the administered dose of uranium cleared and chelator-induced uranium excretion vs the controls is also given. Four positive controls were evaluated: DTPA (1, Table 1) given as its trisodium calcium salt, DFO (2), N,N -bis(2-hydroxybenzyl)ethylenediamine-N,N-diacetic acid, monosodium salt (NaHBED, 3) and the hydroxypyridone CP94 (4) shown to bind uranium. The total metal cleared after 24 h in control rats was 10% of the administered dose. When DTPA, 1, was given IP or PO at 300 μmol/kg immediately after uranium, the excretion was 17% and 8% of the administered dose respectively (p>0.05). However, when the drug was given IP at a dose of 600 μmol/kg immediately post metal, the uranium excretion was significant, 20% (p<0.005). This is consistent with previously published data using a similar animal model.^2 DFO (2) and CP94 (4) given IP immediately post uranyl acetate were ineffective.

## COc1ccc(C2=N[C@@H](C(=O)O)CS2)c(O)c1 [drawing 24]
[1]
  relative percentages of the iron excreted in the stool and urine: 81/19
  Iron Clearing Efficiency (%): 16.2 ± 3.2%

## COc1ccc(C2=N[C@@H](C(=O)O)CS2)c(O)c1 [drawing 12]
[2]; 300 μmol/kg IP 0.5 h Post
  % of Administered Dose Cleared: 33%
  Chelator-Induced U Excretion/Control: 3.3
  Uranium Excretion: 917 ± 177 µg/kg
  Uranium Excretion [urine/bite]: [16/84]
[2]; 300 μmol/kg IP 0.5 h Pre
  % of Administered Dose Cleared: 29%
  Chelator-Induced U Excretion/Control: 2.9
  Uranium Excretion: 815 ± 211 µg/kg
  Uranium Excretion [urine/bite]: 48/52
[2]; 300 μmol/kg IP 2 h Post
  % of Administered Dose Cleared: 30%
  Chelator-Induced U Excretion/Control: 3.0
  Uranium Excretion: 847 ± 335 µg/kg
  Uranium Excretion [urine/bite]: [46/54]
[2]; 300 μmol/kg IP 4 h Post
  % of Administered Dose Cleared: 16%
  Chelator-Induced U Excretion/Control: 1.6
  Uranium Excretion: 444 ± 119 µg/kg
  Uranium Excretion [urine/bite]: [66/34]
[2]; 300 μmol/kg IP Immediate
  % of Administered Dose Cleared: 30%
  Chelator-Induced U Excretion/Control: 3.0
  Uranium Excretion: 838 ± 166 µg/kg
  Uranium Excretion [urine/bite]: [64/36]
[2]; 300 μmol/kg PO 2 h Post
  % of Administered Dose Cleared: 18%
  Chelator-Induced U Excretion/Control: 1.8
  Uranium Excretion: 507 ± 182 µg/kg
  Uranium Excretion [urine/bite]: [53/47]
[2]; 300 μmol/kg PO Immediate
  % of Administered Dose Cleared: 23%
  Chelator-Induced U Excretion/Control: 2.3
  Uranium Excretion: 642 ± 101 µg/kg
  Uranium Excretion [urine/bite]: [43/57]
[2]; 300 μmol/kg SC Immediate
  % of Administered Dose Cleared: 40%
  Chelator-Induced U Excretion/Control: 4.0
  Uranium Excretion: 1130 ± 245 µg/kg
  Uranium Excretion [urine/bite]: [13/87]
[2]; 600 μmol/kg PO 0.5 h Post
  % of Administered Dose Cleared: 25%
  Chelator-Induced U Excretion/Control: 2.5
  Uranium Excretion: 698 ± 166 µg/kg
  Uranium Excretion [urine/bite]: [24/76]
[2]; 600 μmol/kg PO 1 h Post
  % of Administered Dose Cleared: 26%
  Chelator-Induced U Excretion/Control: 2.6
  Uranium Excretion: 723 ± 128 µg/kg
  Uranium Excretion [urine/bite]: [28/72]

## COc1ccc(C2=N[C@@](C)(C(=O)O)CS2)c(O)c1 [drawing 25]
[1]
  relative percentages of the iron excreted in the stool and urine: 91/9
  Iron Clearing Efficiency (%): 24.4 ± 10.8%

## O=C(O)CN(CCN(CC(=O)O)CC(=O)O)CCN(CC(=O)O)CC(=O)O [drawing 4]
[2]; 300 μmol/kg IP Immediate
  % of Administered Dose Cleared: 17%
  Uranium Excretion: 469 ± 271 µg/kg
  Uranium Excretion [urine/bite]: 99/1
[2]; 300 μmol/kg PO Immediate
  % of Administered Dose Cleared: 6%
  Uranium Excretion: 235 ± 205 µg/kg
  Uranium Excretion [urine/bite]: [100/0]
[2]; 600 μmol/kg IP Immediate
  % of Administered Dose Cleared: 20%
  Uranium Excretion: 546 ± 147 µg/kg
  Uranium Excretion [urine/bite]: [100/0]
[2]; ip, 300 μmol/kg IP Immediate
  response vs control in vivo at 300 µmol/kg: 170%
[2]; ip, 600 μmol/kg IP Immediate
  response vs control in vivo at 600 µmol/kg: 200%
[2]; po, 300 μmol/kg PO Immediate
  response vs control in vivo at 300 µmol/kg: 80%

## CCC1=C(O)C(=O)CCN1CC [CP94, reference compound]
[2]; given IP immediately post uranyl acetate, doses per Table 1
  uranium clearance, in words: ineffective

## COc1ccc(C2=N[C@H](C(=O)O)CS2)c(O)c1
[2]; 300 μmol/kg IP 0.5 h Post
  % of Administered Dose Cleared: 33%
  Uranium Excretion: 917 ± 177 µg/kg
  Uranium Excretion [urine/bite]: 16/84
[2]; 300 μmol/kg IP 0.5 h Pre
  % of Administered Dose Cleared: 29%
  Uranium Excretion: 815 ± 211 µg/kg
  Uranium Excretion [urine/bite]: 48/52
[2]; 300 μmol/kg IP 2 h Post
  % of Administered Dose Cleared: 30%
  Uranium Excretion: 847 ± 335 µg/kg
  Uranium Excretion [urine/bite]: 46/54
[2]; 300 μmol/kg IP 4 h Post
  % of Administered Dose Cleared: 16%
  Uranium Excretion: 444 ± 119 µg/kg
  Uranium Excretion [urine/bite]: 66/34
[2]; 300 μmol/kg IP Immediate
  % of Administered Dose Cleared: 30%
  Uranium Excretion: 838 ± 166 µg/kg
  Uranium Excretion [urine/bite]: 64/36
[2]; 300 μmol/kg PO 2 h Post
  % of Administered Dose Cleared: 18%
  Uranium Excretion: 507 ± 182 µg/kg
  Uranium Excretion [urine/bite]: 53/47
[2]; 300 μmol/kg PO Immediate
  % of Administered Dose Cleared: 23%
  Uranium Excretion: 642 ± 101 µg/kg
  Uranium Excretion [urine/bite]: 43/57
[2]; 300 μmol/kg SC Immediate
  % of Administered Dose Cleared: 40%
  Uranium Excretion: 1130 ± 246 µg/kg
  Uranium Excretion [urine/bite]: 13/87
[2]; 600 μmol/kg PO 0.5 h Post
  % of Administered Dose Cleared: 25%
  Uranium Excretion: 698 ± 166 µg/kg
  Uranium Excretion [urine/bite]: 24/76
[2]; 600 μmol/kg PO 1 h Post
  % of Administered Dose Cleared: 26%
  Uranium Excretion: 723 ± 126 µg/kg
  Uranium Excretion [urine/bite]: 28/72
[2]; ip, 300 μmol/kg IP 0.5 h Post
  response vs control in vivo at 300 µmol/kg: 330%
[2]; ip, 300 μmol/kg IP 0.5 h Pre
  response vs control in vivo at 300 µmol/kg: 290%
[2]; ip, 300 μmol/kg IP 2 h Post
  response vs control in vivo at 300 µmol/kg: 300%
[2]; ip, 300 μmol/kg IP 4 h Post
  response vs control in vivo at 300 µmol/kg: 160%
[2]; ip, 300 μmol/kg IP Immediate
  response vs control in vivo at 300 µmol/kg: 300%
[2]; po, 300 μmol/kg PO 2 h Post
  response vs control in vivo at 300 µmol/kg: 180%
[2]; po, 300 μmol/kg PO Immediate
  response vs control in vivo at 300 µmol/kg: 230%
[2]; po, 600 μmol/kg PO 0.5 h Post
  response vs control in vivo at 600 µmol/kg: 250%
[2]; po, 600 μmol/kg PO 1 h Post
  response vs control in vivo at 600 µmol/kg: 260%
[2]; sc, 300 μmol/kg SC Immediate
  response vs control in vivo at 300 µmol/kg: 400%
